Source: patent US20110245242A1, “Heterocyclically Substituted Anilinopyrimides” (Bayer CropScience AG, priority 2008, published 2011)

Experiments:
[1] = physchem; assay type: physicochemical; details: pH 7.8
Method: The log P values were measured in accordance with EEC Directive 79/831 Annex V.A8 by HPLC (High Performance Liquid Chromatography) on reversed-phase columns (C 18) using the methods below: [c] The LC-MS determination in the neutral range was carried out at pH 7.8 using the mobile phases 0.001 molar aqueous ammonium bicarbonate solution and acetonitrile linear gradient from 10% acetonitrile to 95% acetonitrile.

[2] = log P by LC-MS, method [b], acid range pH 2.7; assay type: physicochemical; details: pH 2.7
Method: The log P values were measured in accordance with EEC Directive 79/831 Annex V.A8 by HPLC (High Performance Liquid Chromatography) on reversed-phase columns (C 18) using the methods below:
[b] The LC-MS determination in the acid range was carried out at pH 2.7 using the mobile phases 0.1% aqueous formic acid and acetonitrile (contains 0.1% formic acid)
linear gradient from 10% acetonitrile to 95% acetonitrile.

SMILES | log p [1] | log p [2]
CC(C)Nc1nc(Nc2ccc(F)c(N3CCCC3=O)c2)ncc1Cl [Example 197] | 2.55[c]; | 1.55[b]
CNc1nc(Nc2ccc(F)c(N3CCCC3=O)c2)ncc1Cl [Example 199] | 1.91[c]; | 1.28[b]
CCN(C)c1nc(Nc2cccc(N3CCCC3=O)c2)ncc1Cl [Example 207] | 2.91[c]; | 1.79[b]
CCC1CC(C)C(=O)N1c1cccc(Nc2ncc(Br)c(NC3CC3)n2)c1 (stereo not drawn) [Example 208] | 3.31[c]; | 2.32[b]
CCC1CC(C)C(=O)N1c1cccc(Nc2ncc(Br)c(NCC3CC3)n2)c1 (stereo not drawn) [Example 209] | 3.69[c]; | 2.41[b]
CC1CC1Nc1nc(Nc2cccc(N3C(=O)OCC3C)c2)ncc1Cl (stereo not drawn) [Example 215] | 2.79[c]; | 1.84[b]
CC1CC1Nc1nc(Nc2cccc(N3C(=O)OC[C@H]3C(C)C)c2)ncc1Cl (stereo partly drawn) [Example 216] | 3.46[c]; | 2.43[b]
O=C1CCCN1c1cccc(Nc2ncc(Cl)c(N3CCCCC3)n2)c1 [Example 225] | 3.53[c]; | 2.57[b]
O=C1CCCN1c1cccc(Nc2ncc(Cl)c(N3CCOCC3)n2)c1 [Example 226] | 2.29[c]; | 1.98[b]
O=C1CCCN1c1cccc(Nc2ncc(Cl)c(N3CCSCC3)n2)c1 [Example 228] | 3.01[c]; | 2.63[b]
CC1CC1Nc1nc(Nc2cccc(N3CCCC3=O)c2)ncc1Br (stereo not drawn) [Example 229] | 2.82[c]; | 1.84[b]
CC1CCN(c2cccc(Nc3ncc(Cl)c(NC4CC4C)n3)c2)C1=O (stereo not drawn) [Example 241] | 3.17[c]; | 2.06[b]
CC1CCC(=O)N1c1cccc(Nc2ncc(C(F)(F)F)c(NC3CC3)n2)c1 (stereo not drawn) [Example 243] | 2.73[c]; | 2.41[b]
CC1CC1Nc1nc(Nc2cccc(N3C(=O)CC(C)(C)C3=O)c2)ncc1Cl (stereo not drawn) [Example 246] | 2.92[c]; | 2.09[b]
CC1CC(=O)N(c2cccc(Nc3ncc(C(F)(F)F)c(NC4CCC4)n3)c2)C1=O (stereo not drawn) [Example 247] | 3.04[c]; | 2.67[b]
CC1CCN(c2cccc(Nc3ncc(C(F)(F)F)c(NC4CCC4)n3)c2)C1=O (stereo not drawn) [Example 251] | 3.67[c]; | 3.16[b]
CC1(Nc2nc(Nc3cccc(N4CCCC4=O)c3)ncc2C(F)(F)F)CC1 [Example 252] | 2.95[c]; | 2.44[b]
CC1CC(Nc2nc(Nc3cccc(N4C(=O)CC(C)(C)C4=O)c3)ncc2Br)C1 (stereo not drawn) [Example 257] | 3.66[c]; | 2.58[b]
CC1CCN(c2cccc(Nc3ncc(C(F)(F)F)c(NC4CC4)n3)c2)C1=O (stereo not drawn) [Example 292] | 3.05[c]; | 2.65[b]
CC(C)Nc1nc(Nc2cccc(N3CCCC3=O)c2)ncc1C(F)(F)F [Example 297] | 3[c]; | 2.35[b]

The remaining lines, values ahead:

log p [1] | log p [2] | SMILES
2.82[c]; | 2.56[b] | CCOC(=O)[C@@H]1CCC(=O)N1c1cccc(Nc2ncc(C(F)(F)F)c(NC3CC3)n2)c1 [Example 193]
2.24[c]; | 1.29[b] | CCNc1nc(Nc2cccc(N3CCCC3=O)c2)ncc1Cl [Example 204]
3.7[c]; | 2.36[b] | CCC1CC(C)C(=O)N1c1cccc(Nc2ncc(Br)c(NC(C)C)n2)c1 (stereo not drawn) [Example 210]
3.54[c]; | 2.33[b] | CCC1CC(C)C(=O)N1c1cccc(Nc2ncc(Cl)c(NCC3CC3)n2)c1 (stereo not drawn) [Example 212]
2.48[c]; | 1.7[b] | CC1CC1Nc1nc(Nc2cccc(N3CCCCC3=O)c2)ncc1Cl (stereo not drawn) [Example 213]
3.07[c]; | 3.1[b] | O=C1CCCN1c1cccc(Nc2ncc(C(F)(F)F)c(NCC(F)(F)C(F)(F)F)n2)c1 [Example 218]
2.67[c]; | 1.81[b] | CC1CC1Nc1nc(Nc2cccc(N3CCCCC3=O)c2)ncc1Br (stereo not drawn) [Example 223]
2.79[c]; | 1.77[b] | CC1CC1Nc1nc(Nc2cccc(N3CCOC3=O)c2)ncc1Br (stereo not drawn) [Example 227]
2.75[c]; | 1.58[b] | C[C@H]1COC(=O)N1c1cccc(Nc2ncc(Cl)c(N3CCC3)n2)c1 [Example 230]
2.9[c]; | 1.83[b] | CC1CC1Nc1nc(Nc2cccc(N3C(=O)OCC3C)c2)ncc1Br (stereo not drawn) [Example 239]
3.06[c]; | 2.65[b] | CC1CC(=O)N(c2cccc(Nc3ncc(C(F)(F)F)c(NC4CC4)n3)c2)C1 (stereo not drawn) [Example 240]
2.53[c]; | 2.29[b] | CC1CC(=O)N(c2cccc(Nc3ncc(C(F)(F)F)c(NC4CC4)n3)c2)C1=O (stereo not drawn) [Example 244]
3.71[c]; | 2.54[b] | CC(C)C1COC(=O)N1c1cccc(Nc2ncc(Br)c(NC3CCC3)n2)c1 (stereo not drawn) [Example 248]
3.34[c]; | 3.04[b] | CC(C)C1COC(=O)N1c1cccc(Nc2ncc(C(F)(F)F)c(NC3CC3)n2)c1 (stereo not drawn) [Example 249]
3.18[c]; | 2.22[b] | CC(C)C1COC(=O)N1c1cccc(Nc2ncc(Br)c(NC3CC3)n2)c1 (stereo not drawn) [Example 250]
3.16[c]; | 2.15[b] | CC1CC(Nc2nc(Nc3cccc(N4C(=O)CCC4C)c3)ncc2Cl)C1 (stereo not drawn) [Example 253]
3.24[c]; | 2.3[b] | O=C1CCC(C(F)(F)F)N1c1cccc(Nc2ncc(Br)c(NC3CCC3)n2)c1 (stereo not drawn) [Example 258]
3.22[c]; | 2.43[b] | CC1CC(Nc2nc(Nc3cccc(N4C(=O)CC(C)(C)C4=O)c3)ncc2Cl)C1 (stereo not drawn) [Example 259]
2.67[c]; | 1.89[b] | O=C1CCC(C(F)(F)F)N1c1cccc(Nc2ncc(Cl)c(NC3CC3)n2)c1 (stereo not drawn) [Example 260]
3.85[c]; | 3.47[b] | CC(C)C1COC(=O)N1c1cccc(Nc2ncc(C(F)(F)F)c(NC3CCC3)n2)c1 (stereo not drawn) [Example 263]
2.56[c]; | 1.65[b] | CC1CN(c2cccc(Nc3ncc(Cl)c(NC4CC4)n3)c2)C(=O)O1 (stereo not drawn) [Example 264]
2.98[c]; | 2.23[b] | CC1CC(Nc2nc(Nc3cccc(N4C(=O)CC(C)C4=O)c3)ncc2Br)C1 (stereo not drawn) [Example 281]
3.17[c]; | 2.04[b] | CC1CN(c2cccc(Nc3ncc(Br)c(NC4CCC4)n3)c2)C(=O)O1 (stereo not drawn) [Example 287]
3.74[c]; | 3.27[b] | CC1CC(C)N(c2cccc(Nc3ncc(C(F)(F)F)c(NC4CCC4)n3)c2)C1=O (stereo not drawn) [Example 289]
2.74[c]; | 1.87[b] | CCC1CCC(=O)N1c1cccc(Nc2ncc(Cl)c(NC3CC3)n2)c1 (stereo not drawn) [Example 294]
3.11[c]; | 2.2[b] | CC1CC1Nc1nc(Nc2cccc(N3C(=O)CC(C)(C)C3=O)c2)ncc1Br (stereo not drawn) [Example 295]
3.26[c]; | 3.25[b] | CC1CC(Nc2nc(Nc3cccc(N4CCCC4=O)c3)ncc2Cl)C1 (stereo not drawn) [Example 299]
3.24[c]; | 2.45[b] | O=C1CCCN1c1cccc(Nc2ncc(C(F)(F)F)c(N3CCCC3)n2)c1 [Example 301]
